Data reported in ChEMBL document CHEMBL1201862, “PubChem BioAssay data set” (2004).
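Briefly, cells in 96-well plates were exposed to five compound concentrations for 48 h, and endpoints were estimated by linear interpolation. Here, GI50 denotes the concentration required for 50% inhibition of growth.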 Activity calls are given as the source filed them. No stated cut-off is given here; in the data, active = GI50 up to about 1.1 µM and inactive = higher. Residues, ends and D or L forms follow the SMILES beside them.

Tests used:
Assay in all cases: NCI tumour cell line growth inhibition, 48 h
786-0 = system: 786-0
CAKI-1 = system: CAKI-1
DU-145 = system: DU-145
EKVX = system: EKVX
HCC 2998 = system: HCC 2998
HCT-116 = system: HCT-116
HOP-62 = system: HOP-62
M14 = system: M14
MDA-MB-435 = system: MDA-MB-435
Malme-3M = system: Malme-3M
NCI-H460 = system: NCI-H460
NCI-H522 = system: NCI-H522
OVCAR-4 = system: OVCAR-4
OVCAR-5 = system: OVCAR-5
PC-3 = system: PC-3
RXF 393 = system: RXF 393
TK-10 = system: TK-10
U-251 = system: U-251
UACC-257 = system: UACC-257
UACC-62 = system: UACC-62

Measured: GI50

Clc1ccc(-c2c(C3=NCCCN3)nnn2-c2ccc(Cl)cc2)cc1
inactive: 786-0 40.9 µM | CAKI-1 60.1 µM | DU-145 > 91.2 µM | EKVX 63.1 µM | HCC 2998 18.2 µM | HCT-116 28.9 µM | HOP-62 55.5 µM | M14 16.7 µM | MDA-MB-435 19.2 µM | Malme-3M 17.8 µM | NCI-H460 40.9 µM | NCI-H522 32.9 µM | OVCAR-4 > 65.2 µM | OVCAR-5 35.3 µM | PC-3 31.1 µM | RXF 393 17.7 µM | TK-10 40 µM | U-251 49.8 µM | UACC-257 22.3 µM | UACC-62 18.5 µM

COc1ccc(-c2cc(-c3ccccc3)n(C3OCC(OC(C)=O)C(OC(C)=O)C3OC(C)=O)c(=S)c2C#N)cc1 (stereo not drawn)
inactive: CAKI-1 67.5 µM | DU-145 > 100 µM | EKVX > 100 µM | HCC 2998 > 100 µM | HCT-116 86.5 µM | HOP-62 > 100 µM | M14 > 100 µM | MDA-MB-435 > 100 µM | Malme-3M > 100 µM | NCI-H460 9.42 µM | NCI-H522 66.5 µM | OVCAR-4 > 100 µM | OVCAR-5 87.1 µM | PC-3 > 100 µM | RXF 393 37.5 µM | TK-10 63 µM | U-251 > 100 µM | UACC-257 > 100 µM | UACC-62 53 µM

O=C1C(Cl)=CC2(C=C1Cl)CCNC1=C2C(=O)c2nc[nH]c2C1=O
inactive: 786-0 41.3 µM | CAKI-1 64.4 µM | DU-145 > 100 µM | EKVX 51.8 µM | HCC 2998 39.4 µM | HCT-116 26 µM | HOP-62 > 100 µM | M14 39 µM | MDA-MB-435 18.2 µM | Malme-3M 24.3 µM | NCI-H460 40.3 µM | NCI-H522 21.1 µM | OVCAR-4 58.7 µM | OVCAR-5 > 100 µM | PC-3 35.3 µM | RXF 393 23.2 µM | TK-10 > 100 µM | U-251 26.5 µM | UACC-257 18.6 µM | UACC-62 18.3 µM

CNc1nc(=S)[nH]c2sc3c(c12)CCCC3
inactive: 786-0 > 75 µM | CAKI-1 > 75 µM | DU-145 > 75 µM | EKVX 45.1 µM | HCC 2998 > 75 µM | HCT-116 > 75 µM | HOP-62 > 75 µM | MDA-MB-435 > 75 µM | Malme-3M > 75 µM | NCI-H522 > 75 µM | OVCAR-4 > 75 µM | OVCAR-5 > 75 µM | PC-3 > 75 µM | RXF 393 > 75 µM | TK-10 > 75 µM | U-251 > 75 µM | UACC-257 > 75 µM | UACC-62 > 75 µM

CCOC(=O)c1sc2nc(SC)nc(Nc3ccc4c(c3)OCCO4)c2c1N
inactive: CAKI-1 22.9 µM | DU-145 14.1 µM | EKVX 9.59 µM | HCC 2998 25.7 µM | HCT-116 6.3 µM | HOP-62 11.8 µM | M14 11 µM | MDA-MB-435 18 µM | Malme-3M 12 µM | NCI-H460 17.5 µM | NCI-H522 6.76 µM | OVCAR-4 10.7 µM | OVCAR-5 17.1 µM | PC-3 13.2 µM | RXF 393 3.93 µM | TK-10 15.2 µM | U-251 5.87 µM | UACC-257 21.7 µM | UACC-62 11.4 µM

CCOC(=O)NC(Nc1ccc(OC(F)(F)F)cc1)(C(F)(F)F)C(F)(F)F
inactive: 786-0 > 100 µM | CAKI-1 > 100 µM | DU-145 > 100 µM | EKVX > 100 µM | HCC 2998 > 100 µM | HCT-116 > 100 µM | HOP-62 > 100 µM | M14 > 100 µM | MDA-MB-435 > 100 µM | Malme-3M > 100 µM | NCI-H460 > 100 µM | NCI-H522 > 100 µM | OVCAR-5 > 100 µM | PC-3 > 100 µM | RXF 393 > 100 µM | TK-10 > 100 µM | U-251 > 100 µM | UACC-257 > 100 µM | UACC-62 > 100 µM

C=CCOc1ccc(C2(c3ccc(OCC=C)cc3)C(=O)Nc3ccccc32)cc1
inactive: 786-0 > 10 µM | CAKI-1 > 10 µM | DU-145 > 10 µM | EKVX > 10 µM | HCC 2998 > 10 µM | HCT-116 > 10 µM | HOP-62 > 10 µM | M14 > 10 µM | MDA-MB-435 > 10 µM | Malme-3M > 10 µM | NCI-H460 > 10 µM | NCI-H522 > 10 µM | OVCAR-4 3.4 µM | OVCAR-5 > 10 µM | PC-3 > 10 µM | RXF 393 > 10 µM | TK-10 > 10 µM | U-251 > 10 µM | UACC-257 > 10 µM | UACC-62 > 10 µM

COC(=O)/C(=C(/C)c1ccco1)P(=O)(OC)OC
inactive: 786-0 > 100 µM | CAKI-1 > 100 µM | DU-145 > 100 µM | EKVX > 100 µM | HCC 2998 > 100 µM | HCT-116 > 100 µM | HOP-62 > 100 µM | M14 > 100 µM | MDA-MB-435 > 100 µM | Malme-3M > 100 µM | NCI-H522 > 100 µM | OVCAR-4 > 100 µM | OVCAR-5 > 100 µM | PC-3 > 100 µM | RXF 393 > 100 µM | TK-10 > 100 µM | U-251 > 100 µM | UACC-257 > 100 µM | UACC-62 > 100 µM

C=C1C(=O)OC2C3C(=C)[C@@H](OC(C)=O)CC3C(C)=CC(OC(=O)C(C)(OC(C)=O)C(C)OC(C)=O)[C@@H]12 (stereo partly drawn)
inactive: 786-0 16.6 µM | CAKI-1 10.6 µM | DU-145 16.1 µM | EKVX 16.6 µM | HCC 2998 18.6 µM | HCT-116 11 µM | HOP-62 37.4 µM | M14 14.6 µM | MDA-MB-435 13.5 µM | Malme-3M 13.6 µM | NCI-H460 23.6 µM | NCI-H522 2.52 µM | OVCAR-4 13.3 µM | OVCAR-5 21.9 µM | PC-3 17.3 µM | RXF 393 12.3 µM | TK-10 14.1 µM | U-251 16.5 µM | UACC-257 14.9 µM | UACC-62 13.3 µM

CSc1ccc2c(cc1=O)[C@@H](NC(=O)c1ccc([N+](=O)[O-])cc1)CCc1cc(O)c(O)c(O)c1-2
inactive: 786-0 29.8 µM | CAKI-1 21.6 µM | DU-145 > 100 µM | EKVX > 100 µM | HCC 2998 > 100 µM | HCT-116 34.8 µM | HOP-62 16.2 µM | M14 30.5 µM | MDA-MB-435 16.6 µM | Malme-3M > 100 µM | NCI-H460 40 µM | NCI-H522 37.2 µM | OVCAR-4 39.8 µM | OVCAR-5 > 100 µM | PC-3 > 100 µM | RXF 393 > 100 µM | TK-10 > 100 µM | U-251 34.2 µM | UACC-257 > 100 µM | UACC-62 53.3 µM

c1nc(OCC2CCCCC2)c2nc[nH]c2n1
inactive: 786-0 > 100 µM | CAKI-1 > 100 µM | DU-145 73.8 µM | EKVX 53 µM | HCC 2998 > 100 µM | HCT-116 35.7 µM | HOP-62 55.7 µM | M14 59.4 µM | MDA-MB-435 46.7 µM | Malme-3M 70.5 µM | NCI-H460 72.6 µM | NCI-H522 44.4 µM | OVCAR-4 > 100 µM | OVCAR-5 62.7 µM | PC-3 85.9 µM | RXF 393 60.7 µM | TK-10 > 100 µM | U-251 58.3 µM | UACC-257 91.8 µM | UACC-62 47.1 µM

NCCNCCNc1ccc(NCCNCCN)c2c1C(=O)c1c(O)ccc(O)c1C2=O
inactive: 786-0 > 100 µM | CAKI-1 > 100 µM | DU-145 > 100 µM | EKVX > 100 µM | HCC 2998 > 100 µM | HCT-116 > 100 µM | HOP-62 > 100 µM | M14 > 100 µM | MDA-MB-435 > 100 µM | Malme-3M > 100 µM | NCI-H460 8.75 µM | NCI-H522 > 100 µM | OVCAR-4 > 100 µM | OVCAR-5 > 100 µM | PC-3 > 100 µM | RXF 393 > 100 µM | TK-10 > 100 µM | U-251 > 100 µM | UACC-257 > 100 µM | UACC-62 > 100 µM

CCC(C)C(NC(=O)C(CCCCN)NC(=O)C(NC(=O)C(CCC(N)=O)NC(=O)C(N)CCCNC(=N)N)C(C)CC)C(=O)NC(Cc1c[nH]c2ccccc12)C(=O)NC(Cc1ccccc1)C(=O)NC(CCC(N)=O)C(=O)NC(CC(N)=O)C(=O)NC(CCCNC(=N)N)C(=O)NC(CCCNC(=N)N)C(=O)NC(CCSC)C(=O)NC(CCCCN)C(=O)NC(Cc1c[nH]c2ccccc12)C(=O)NC(CCCCN)C(=O)NC(CCCCN)C(=O)N1CCCC1C(=O)NC(C)C(=O)NC(CCCCN)C(=O)NC(CCCNC(=N)N)C(=O)NC(CCCCN)C(=O)NC(CC(C)C)C(=O)NC(Cc1ccccc1)C(=O)NCC(=O)O (stereo not drawn) (H-RQIKIWFQNRRMKWKKPAKRKLFG-OH; configuration not given here)
inactive: 786-0 17.5 µM | CAKI-1 > 25 µM | DU-145 > 25 µM | EKVX > 25 µM | HCC 2998 > 25 µM | HCT-116 16.3 µM | HOP-62 > 25 µM | M14 12.1 µM | MDA-MB-435 16 µM | Malme-3M 6.75 µM | NCI-H460 24.7 µM | NCI-H522 > 25 µM | OVCAR-4 > 25 µM | OVCAR-5 > 25 µM | PC-3 > 25 µM | RXF 393 > 25 µM | TK-10 > 25 µM | U-251 17 µM | UACC-257 21.9 µM
